PubChem BioAssay (NCI)
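All cell lines were grown in 96-well plates and treated with compound for 48 hours. Here, GI50 denotes the concentration required for 50% inhibition of growth. Definition used: TGI = concentration required for complete inhibition of growth.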 *1 amine or outer side, *2 acyl side, *3 side chain or, on linkers, in order; H or OH if unused. Where a SMILES comes first, the peptide text is derived from it. [ ]: non-standard residue; d: D form. The star is where a group is joined. X12 = NCCCCC(N[*:1])C(=O)CN1CCCC1C(=O)[*:2]; Pentadecanoyl = CCCCCCCCCCCCCCC(=O)*

Experiments:
Assay in all cases: NCI-60 cell line screen, 48 h
PC-3 prostate = tested on: PC-3 prostate
OVCAR-3 ovarian = tested on: OVCAR-3 ovarian
EKVX NSCLC = tested on: EKVX NSCLC
HOP-62 NSCLC = tested on: HOP-62 NSCLC
UACC-257 melanoma = tested on: UACC-257 melanoma
TK-10 renal = tested on: TK-10 renal
NCI-H226 lung = tested on: NCI-H226 lung
MDA-MB-231 breast = tested on: MDA-MB-231 breast
K-562 leukemia = tested on: K-562 leukemia
UO-31 renal = tested on: UO-31 renal

| Compound | TGI (PC-3 prostate) | TGI (OVCAR-3 ovarian) | TGI (EKVX NSCLC) | TGI (HOP-62 NSCLC) | TGI (UACC-257 melanoma) | TGI (TK-10 renal) | TGI (NCI-H226 lung) | TGI (MDA-MB-231 breast) | TGI (K-562 leukemia) | GI50 (OVCAR-3 ovarian) | GI50 (EKVX NSCLC) | GI50 (HOP-62 NSCLC) | GI50 (UACC-257 melanoma) | GI50 (TK-10 renal) | GI50 (NCI-H226 lung) | GI50 (UO-31 renal) | TGI (UO-31 renal) | GI50 (MDA-MB-231 breast) | GI50 (K-562 leukemia) |
| --- | --- | --- | --- | --- | --- | --- | --- | --- | --- | --- | --- | --- | --- | --- | --- | --- | --- | --- | --- |
| CC1C/C(=C\c2ccc(O)c(O)c2)C(=O)/C(=C/c2ccc(O)c(O)c2)C1 (stereo not given) | 29.9 µM | 18.1 µM | 30.1 µM | 24.4 µM | 28.7 µM | > 100 µM | 9.64 µM | 43.4 µM | 27.4 µM |  |  |  |  |  |  |  |  |  |  |
| CCCCCCCCCCCCCCC(=O)NC(CCCCN)C(=O)CN1CCCC1C(=O)NCC(=O)NC(Cc1ccccc1)C(=O)N1CCCC1C(=O)NC(CO)C(=O)NC(Cc1ccc(O)cc1)C(=O)NC(CCCCN)C(=O)NC(CC(C)C)C(=O)NC(CCCN=C(N)N)C(=O)N1CCCC1C(=O)NCC(N)=O (stereo not given) (Pentadecanoyl-[X12]GFPSYKLRPG-NH2; configuration not given here) |  | 64.6 µM | 60.5 µM | 45.2 µM | 52.1 µM | 32.9 µM | 38.6 µM | 32.5 µM | 40 µM | 28 µM | 25.9 µM | 20.5 µM | 29.5 µM | 11.7 µM | 17.8 µM | 22.6 µM | 60.2 µM | 16.7 µM | 19.5 µM |
| O=C(Nc1ccccc1C(=O)O)C(=Cc1ccccc1O)NC(=O)c1ccccc1 | > 100 µM | > 100 µM | > 100 µM | > 100 µM | > 100 µM |  | > 100 µM | > 100 µM | > 100 µM |  |  |  |  |  |  |  | > 100 µM |  |  |
| Cc1cccc(-c2cc(=O)c3cc(C)cnc3[nH]2)c1 | > 56.9 µM |  | > 100 µM | > 100 µM | > 100 µM | > 100 µM | 2.79 µM |  | > 33.3 µM |  |  |  |  |  |  |  | > 100 µM |  |  |
| O=c1cc(-c2ccccc2)[nH]c2c(F)ccc(F)c12 |  |  |  | > 100 µM | > 100 µM | > 100 µM | > 100 µM |  | > 100 µM |  |  |  |  |  |  |  | > 100 µM |  |  |
